Tests used:
[1] = rats, daily dosage of 1,200 mg/kg continuously for 52 weeks; cited from earlier work
[2] = test system: Liver dysfunction induced by carbon tetrachloride; details: rats, intraperitoneal administration; cited from earlier work
[3] = test system: liver dysfunction model using carbon tetrachloride; assay: liver dysfunction model using carbon tetrachloride, plasma GPT activity; assay type: in vivo, male SD rats; details: rats; for GPT activity in the plasma sample, relative to the control group: 100 mg/kg oral in soy oil about 17 h before 50% carbon tetrachloride 2.0 ml/kg i.p., plasma 24 hours after carbon tetrachloride, n=4; for GPT activity in the plasma, rank among the groups: 100 mg/kg oral, 24 hours after carbon tetrachloride, same tendency at 48 hours and 72 hours, control group highest
Description: The effects of coenzyme Q10 on protecting liver functions from disorders and preventing liver dysfunctions were examined by establishing a liver dysfunction model using carbon tetrachloride. A soy oil solution of oxidized coenzyme Q10 or reduced coenzyme Q10 with approximately 2% of oxidized coenzyme Q10 was orally administered to male SD rats (6 weeks old) at a dosage of 100 mg/kg. About 16 hours after the administration, blood was collected from the jugular vein using heparin as an anticoagulant. After one hour, 50% carbon tetrachloride (product of Nacalai Tesque, Inc.)/olive oil (product of Wako Pure Chemical Industries, Ltd.) was intraperitoneally administered at a dosage of 2.0 ml/kg. Blood was collected 24 hours, 48 hours, and 72 hours after the administration of carbon tetrachloride. The collected blood samples were centrifuged to obtain plasma samples. The GPT activity of each plasma sample was measured using a kit, Transaminase CII-Test Wako (product of Wako Pure Chemical Industries, Ltd.).

SMILES: COC1=C(OC)C(=O)C(C/C=C(\C)CC/C=C(\C)CC/C=C(\C)CC/C=C(\C)CC/C=C(\C)CC/C=C(\C)CC/C=C(\C)CC/C=C(\C)CC/C=C(\C)CCC=C(C)C)=C(C)C1=O [Coenzyme Q10]
- toxic effects in chronic toxicity test [1]: no toxic effects

SMILES: COC1=C(OC)C(=O)C(C/C=C(\C)CC/C=C(\C)CC/C=C(\C)CC/C=C(\C)CC/C=C(\C)CC/C=C(\C)CC/C=C(\C)CC/C=C(\C)CC/C=C(\C)CCC=C(C)C)=C(C)C1=O [oxidized coenzyme Q10]
- liver dysfunction induced by carbon tetrachloride [2]: suppressed
- GPT activity in the plasma sample, relative to the control group [3]: about 60 % of the control group
- GPT activity in the plasma, rank among the groups [3]: the next highest

SMILES: COc1c(O)c(C)c(C/C=C(\C)CC/C=C(\C)CC/C=C(\C)CC/C=C(\C)CC/C=C(\C)CC/C=C(\C)CC/C=C(\C)CC/C=C(\C)CC/C=C(\C)CCC=C(C)C)c(O)c1OC [reduced coenzyme Q10]
- GPT activity in the plasma sample, relative to the control group [3]: about 25 % of the control group
- GPT activity in the plasma, rank among the groups [3]: the lowest
